Earlier results, collected in patent US12357578B2, “Ibuprofen and famotidine tablet” (APPCO PHARMA LLC, priority 2020, dated 2025).

| Structure (SMILES) | Solubility in organic solvents (in words) (organic solvents such as ethanol and acetone) | Solubility in water (water) | Solubility in water (in words) (water) | Solubility in ethanol (in words) (ethanol) | Solubility in glacial acetic acid (in words) (glacial acetic acid) | Solubility in methanol (in words) (methanol) |
| --- | --- | --- | --- | --- | --- | --- |
| CC(C)Cc1ccc(C(C)C(=O)O)cc1 (racemic) [Ibuprofen, (±)-2-(p-isobutylphenyl) propionic acid] | readily soluble | < 1000 µg/mL | very slightly soluble | – | – | – |
| NC(N)=Nc1nc(CSCCC(N)=NS(N)(=O)=O)cs1 [Famotidine] | – | – | very slightly soluble | practically insoluble | freely soluble | slightly soluble |
